Measurements published in patent US7582655B2, “Antineoplastic compounds” (University of Saskatchewan, priority 2005, dated 2009).
Read-outs that look alike come from different tables or passages of the source.

Key:
[1] = test system: human squamous cell carcinomas HSC-2; test: Cytotoxicity CC50, MTT assay, HSC-2
Description: (§1) In addition, the compounds were evaluated against human squamous cell carcinomas (HSC-2 and HSC-4) and human promyelocytic leukemia neoplasms (HL-60) and compared with normal cells, i.e. human gingival fibroblasts (HGF), human pulp cells (HPC) and human periodontal ligament fibroblasts (HPLF).
(§2) MTT stands for 3-(4,5-dimethylthiazol-2-yl)-2,5-diphenyltetrazolium bromide). The cells were incubated with varying concentrations of the compounds along with untreated cells for 24 h and the absorbance at 540 nm measured. In the case of the HL-60 assay, the trypan blue exclusion method was followed and cell viability was determined using a haemocytometer. The CC50 values were obtained from dose-response curves (Sakagami, H.; Satoh, K.; Ohata, H.; Takahashi, H.; Yoshida, H.; Iida, M.; Kuribayashi, N.; Sakagami, T.; Momose, K.; Takeda, M. Anticancer Res. 1996, 16, 2635-2644). The general methods used in culturing the cells employed in these cytotoxicity experiments have been described previously (Kawase, M.; Sakagami, H.; Motohashi, N.; Hauer, H.; Chatterjee, S. S.; Spengler, G.; Vigyikanne, A. V.; Molnár, A.; Molnár, J. In Vivo 2005, 19, 705-712; and Takeuchi, R.; Hoshijima, H.; Onuki, N.; Nagasaka, H.; Chowdhury, S. A.; Kawase, M.; Sakagami, H. Anticancer Res. 2005, 25, 4037-4042). In brief, the malignant cells were obtained from Professor Nagumo, Showa University, Japan. The HGF, HPC and HPLF cells were prepared from human periodontal tissue after obtaining informed consent according to the guidelines of Meikai University Ethics Committee, Japan (No. 0206). Since normal cells have a short lifespan, cells at the 3-7 population doubling time were used. With the exception of the HL-60 neoplasm, the cells were cultured in DMEM containing heat-inactivated FBS (10%) at 37° C. in a humidified carbon dioxide atmosphere and subcultured by trypsinization. The HL-60 cells were cultured in a similar fashion except that RPMI 1640 media was employed.

[2] = test system: human squamous cell carcinomas HSC-4; test: Cytotoxicity CC50, MTT assay, HSC-4
Description: as §1, §2

[3] = test system: human promyelocytic leukemia HL-60; test: Cytotoxicity CC50, trypan blue exclusion, HL-60
Description: as §1, §2

[4] = test system: human gingival fibroblasts (HGF); test: Cytotoxicity CC50, MTT assay, normal HGF cells
Description: as §1, §2

human pulp cells (HPC) = test: Cytotoxicity CC50, MTT assay, normal HPC cells
Description: as §1, §2

[5] = test system: human periodontal ligament fibroblasts (HPLF); test: Cytotoxicity CC50, MTT assay, normal HPLF cells
Description: as §1, §2

[6] = test system: murine L-5178 lymphoma cells transfected with the human MDR1 gene; test: MDR reversal, rhodamine 123 fluorescence activity ratio; conditions: FAR >1 indicates MDR reversal; for FAR value 4 μg/ml: compound 4 μg/ml; for FAR value 40 μg/ml: compound 40 μg/ml
Description: A solution of the test compound (2 mg/ml, 10 μl) in dimethylsulfoxide was added to aliquots of the cell suspension and incubated at room temperature for 10 minutes. […] The cells were washed twice and resuspended in PBS (pH 7.4) after which the fluorescence was measured using a Beckton Dickinson FACScan instrument. The fluorescence of the cells was measured in treated MDR cells (F1), untreated MDR cells (F2), treated parental cells (F3) […] were obtained from the following equation, viz (F1/F2)/(F3/F4).

[7] = test system: HSC-2, HSC-4 and HL-60 malignant cells; test: Average CC50 for malignant cells
Description: as §1, §2

human tumour cell lines = test: Panel of human tumour cell lines, all cell lines (mean graph midpoint); assay type: cell-based; conditions: mean graph midpoint, average of 49 (38-59) human tumour cell lines, 48 h incubation; read-out: All cell lines IC50
Description: A number of compounds of the invention were further assessed against numerous human malignant cell lines. An average of 49 cell lines from nine different neoplastic diseases, namely leukemia, melanoma, non-small cell lung, colon, central nervous system, ovarian, renal, prostate, and breast cancers were employed.
(§3) In addition, both 5-fluorouracil and melphalan were evaluated towards 57 cell lines. […] MG MID is the average of the potencies of the compound to approximately 50 neoplastic cell lines.

COLO 205 = test: Human tumour cell line panel, colon cancer COLO 205; assay type: cell-based; conditions: 48 h; read-out: Colon cancer cells, IC50(μM) COLO 205
Description: as §3

HCT 116 = test: Human tumour cell line panel, colon cancer HCT 116; assay type: cell-based; conditions: 48 h; read-out: Colon cancer cells, IC50(μM) HCT 116
Description: as §3

HCT 15 = test: Human tumour cell line panel, colon cancer HCT 15; assay type: cell-based; conditions: 48 h; read-out: Colon cancer cells, IC50(μM) HCT 15
Description: as §3

KM 12 = test: Human tumour cell line panel, colon cancer KM 12; assay type: cell-based; conditions: read-out: Colon cancer cells, IC50(μM) KM 12
Description: as §3

SW 620 = test: Human tumour cell line panel, colon cancer SW 620; assay type: cell-based; conditions: 48 h; read-out: Colon cancer cells, IC50(μM) SW 620
Description: as §3

K 562 = test: Human tumour cell line panel, leukemic K 562; assay type: cell-based; conditions: 48 h; read-out: Leukemic cells, IC50(μM) K 562
Description: as §3

RPMI 8226 = test: Human tumour cell line panel, leukemic RPMI 8226; assay type: cell-based; conditions: 48 h; read-out: Leukemic cells, IC50(μM) RPMI 8226
Description: as §3

HL 60 = test: Human tumour cell line panel, leukemic HL 60; assay type: cell-based; conditions: 48 h; read-out: Leukemic cells, IC50(μM) HL 60
Description: as §3

[8] = read-out: CC50(μM) HSC-2, 24 h, MTT, average of two determinations
[9] = read-out: CC50(μM) HSC-4, 24 h, MTT, average of two determinations
[10] = read-out: CC50(μM) HL-60, 24 h, trypan blue exclusion, average of two determinations
[11] = read-out: CC50(μM) HGF, normal cells, 24 h, MTT
[12] = read-out: CC50(μM) HPC, normal cells, 24 h, MTT
[13] = read-out: CC50(μM) HPLF, normal cells, 24 h, MTT
[14] = average CC50 for HSC-2, HSC-4 and HL-60 malignant cells

Row | Molecule | CC50 [1, 8] [µM] | CC50 [2, 9] [µM] | CC50 [3, 10] [µM] | CC50 [4, 11] [µM] | CC50 (human pulp cells (HPC); [12]) [µM] | CC50 [5, 13] [µM] | FAR value 4 μg/ml [6] | FAR value 40 μg/ml [6] | CC50 [1] [µM] | CC50 [2] [µM] | CC50 [3] [µM] | CC50 [4] [µM] | CC50 (human pulp cells (HPC)) [µM] | CC50 [5] [µM] | CC50(μM) ave [7] [µM] | CC50(μM) ave [7, 14] [µM] | also measured
1 | 1-[4-(2-Dimethylaminoethoxy)phenylcarbonyl]-3,5-bis(4-nitrophenylmethylene)-4-piperidone hydrochloride hemihydrate [Compound 3c] | 0.93 | 0.71 | 0.31 | 7 | 5.2 | 5.9 |  |  |  |  |  |  |  |  |  |  | 
2 | O=C1C(=Cc2ccc(Cl)cc2)CNCC1=Cc1ccc(Cl)cc1 [Compound 1b] |  |  |  |  |  |  | 1.25 | 0.91 | 18 | 20 | 22 | 69 | 130 | 56 | 20 |  | 
3 | CC[N+](C)(CC)CCOc1ccc(C(=O)N2CC(=Cc3ccc([N+](=O)[O-])cc3)C(=O)C(=Cc3ccc([N+](=O)[O-])cc3)C2)cc1.[I-] [Compound 7c, 1-[4-(2-Diethylaminoethoxy)phenylcarbonyl]-3,5-bis(4-nitrophenylmethylene)-4-piperidone methoiodide] |  |  |  |  |  |  | 1.03 | 1.22 | 67 | 61 | 29 | 93 | 130 | 13 | 52 |  | 
4 | Cl.Cl.O.O.O.O=C1C(=Cc2ccc([N+](=O)[O-])cc2)CN(C(=O)c2ccc(OCCN3CCCCC3)cc2)CC1=Cc1ccc([N+](=O)[O-])cc1.O=C1C(=Cc2ccc([N+](=O)[O-])cc2)CN(C(=O)c2ccc(OCCN3CCCCC3)cc2)CC1=Cc1ccc([N+](=O)[O-])cc1 [Compound 5c, 3,5-bis(4-Nitrophenylmethylene)-1-[4-{2-(1-piperidinyl)ethoxy}phenylcarbonyl]-4-piperidone hydrochloride 1.5 hydrate] |  |  |  |  |  |  | 145 | 51.5 | 0.86 | 0.9 | 0.29 | 8 | 3.9 | 4.9 |  |  | 
5 | 1-[4-{2-(4-Morpholinyl)ethoxy}phenylcarbonyl]-3,5-bis(4-nitrophenylmethylene)-4-piperidone hydrochloride hemihydrate [Compound 6c] | 0.76 | 0.74 | 0.35 | 12 | 8.2 | 9.3 |  |  |  |  |  |  |  |  |  |  | 
6 | 1-[4-{2-(4-Morpholinyl)ethoxy}phenylcarbonyl]-3,5-bis(phenylmethylene)-4-piperidone hydrochloride hemihydrate [Compound 6a] | 2.4 | 2.4 | 1.2 | 83 | 95 | 30 |  |  |  |  |  |  |  |  |  | 2.0 | IC50 (human tumour cell lines): > 2.63 µM; IC50 (COLO 205): 22.9 µM; IC50 (HCT 116): 0.339 µM; IC50 (HCT 15): 1.45 µM; IC50 (KM 12): 0.129 µM; IC50 (SW 620): 0.191 µM; IC50 (K 562): 0.158 µM; IC50 (RPMI 8226): 0.123 µM; IC50 (HL 60): 0.562 µM
7 | CC[N+](C)(CC)CCOc1ccc(C(=O)N2CC(=Cc3ccc(Cl)cc3)C(=O)C(=Cc3ccc(Cl)cc3)C2)cc1.[I-] [Compound 7b, 3,5-bis(4-Chlorophenylmethylene)-1-[4-(2-diethylaminoethoxy)phenylcarbonyl]-4-piperidone methoiodide] |  |  |  |  |  |  | 1.21 | 1.85 | > 400 | 220 | 64 | > 400 | > 400 | 9.4 |  |  | CC50 [7]: ≥ 228 µM
8 | Cl.O=C1C(=Cc2ccc(Cl)cc2)CN(C(=O)c2ccc(OCCN3CCOCC3)cc2)CC1=Cc1ccc(Cl)cc1 [Compound 6b] |  |  |  |  |  |  | 76.0 | 6.88 |  |  |  |  |  |  | 42 |  | 
9 | Cc1ccc(C=C2CN(C(=O)c3ccc(OCCN4CCCCC4)cc3)CC(=Cc3ccc(C)cc3)C2=O)cc1.Cc1ccc(C=C2CN(C(=O)c3ccc(OCCN4CCCCC4)cc3)CC(=Cc3ccc(C)cc3)C2=O)cc1.Cl.Cl.O [Compound 5d, 3,5-bis(4-Methylphenylmethylene)-1-[4-{1-piperidinyl)ethoxy}phenylcarbonyl]-4-piperidone hydrochloride hemihydrate] |  |  |  |  |  |  |  |  | 2.9 | 4.1 | 2.3 | 6 | 15 | 5.5 |  |  | IC50 (human tumour cell lines): 1.38 µM; IC50 (COLO 205): 6.92 µM; IC50 (HCT 116): 1.58 µM; IC50 (HCT 15): 1.07 µM; IC50 (KM 12; 48 h): 0.148 µM; IC50 (SW 620): 0.339 µM; IC50 (K 562): 0.589 µM; IC50 (RPMI 8226): 0.123 µM; IC50 (HL 60): 0.933 µM
10 | 1-[4-(2-Diethylaminoethoxy)phenylcarbonyl]-3,5-bis(phenylmethylene)-4-piperidone hydrochloride hemihydrate [Compound 4a] | 3.1 | 2 | 0.61 | 4.2 | 12 | 6 |  |  |  |  |  |  |  |  |  | 1.9 | IC50 (human tumour cell lines): < 1.38 µM; IC50 (COLO 205): 2.63 µM; IC50 (HCT 116): < 0.01 µM; IC50 (HCT 15): 1.17 µM; IC50 (KM 12): 1.74 µM; IC50 (SW 620): 1.35 µM; IC50 (K 562): 0.043 µM; IC50 (RPMI 8226): < 0.01 µM
11 | Cc1ccc(C=C2CN(C(=O)c3ccc(OCCN4CCCCC4)cc3)CC(=Cc3ccc(C)cc3)C2=O)cc1.Cc1ccc(C=C2CN(C(=O)c3ccc(OCCN4CCCCC4)cc3)CC(=Cc3ccc(C)cc3)C2=O)cc1.Cl.Cl.O [Compound 5d] |  |  |  |  |  |  | 179 | 146 |  |  |  |  |  |  | 3.1 |  | 
12 | [4-(2-Dimethylaminoethoxy)phenylcarbonyl]-3,5-bis(phenylmethylene)-4-piperidone hydrochloride [Compound 3a] | 3.8 | 2.1 |  |  |  |  | 45.5 | 51.6 |  |  | 1 |  |  | 8.9 |  | 2.3 | 
13 | 1-[4-{2-(1-Piperidinyl)ethoxy}phenylcarbonyl]-3,5-bis(phenylmethylene)-4-piperidone hydrochloride hemihydrate [Compound 5a] | 3 | 2.5 | 1.4 | 4.6 | 12 | 7.4 |  |  |  |  |  |  |  |  |  | 2.3 | 
